Among the data in US11702422B2, “Imidazopyridazines as modulators of IL-17” (Janssen Pharmaceutica NV, priority 2020, dated 2023) are IC50 values, retold here.

Where a name gives a salt, the structure may show the parent alone.

Assay [1] deals with IL-17A-induced G-CSF production in human normal keratinocyte (NHK). The experiment in a line: NHK Assay: IL-17A-induced G-CSF production in human normal keratinocytes. The class given is cell-based. Conditions: 24 h, adult normal human keratinocytes, IL-17A 5 ng/mL, simple average if tested more than once. The method in brief: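 Titrated compound plus recombinant human IL-17A (pre-incubated 1 h, rt) were applied to adult human keratinocytes at 5 ng/mL cytokine, 0.2% DMSO. Cultures ran 24 h at 37° C, and supernatant G-CSF was measured by HTRF to derive IC50.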

For assay [2], the target named is IL-17A(FLAG-Tagged): IL-17RA(His-Tagged) (Homo sapiens, UniProt Q16552, K93Q). Description: IL-17A(FLAG-Tagged): IL-17RA(His-Tagged) Binding Disruption Eu-HTRF Assay. The settings on record: IL-17A/IL-17RA binding disruption, simple average if tested more than once. The procedure, abridged:
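IC50 comes from a one-site competition fit of the HTRF 665/620 nm ratio. Compound dilutions (2-fold, 22 points) were held 1 h rt with FLAG-tagged IL-17A dimer, then His-tagged IL-17RA plus Eu-cryptate anti-FLAG and D2 anti-His antibodies were added for 2 h rt.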

Chain of UniProt Q16552 (Q16552 with tags, fused parts or gaps K93Q): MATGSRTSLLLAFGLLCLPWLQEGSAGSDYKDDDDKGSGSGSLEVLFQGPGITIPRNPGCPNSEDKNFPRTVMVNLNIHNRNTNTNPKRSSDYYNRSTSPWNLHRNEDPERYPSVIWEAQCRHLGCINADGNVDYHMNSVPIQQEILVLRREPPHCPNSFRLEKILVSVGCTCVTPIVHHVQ

For orientation: IC50 means the concentration that gives 50% inhibition. Lower therefore signals inhibition by little substance. Turning to `O=C(CCC(F)(F)F)N[C@@H](c1cnn2cc([C@@H](NC(=O)c3ccncc3F)C3CCC(F)(F)CC3)nc2c1)C1CC1` [Example 195, N—((S)-(7-((R)-Cyclopropyl(4,4,4-trifluorobutanamido)methyl)imidazo[1,2-b]pyridazin-2-yl)(4,4-difluorocyclohexyl)methyl)-3-fluoroisonicotinamide], the IC50 amounted to 1600 nM in assay [1] (Homo sapiens, Keratinocyte) and 580 nM in assay [2].
Consider `CO[C@@H](C)[C@@H](NC(=O)CC1CC(F)(F)C1)c1cnn2cc([C@@H](NC(=O)c3ccnn3C(C)C)C3CCC(F)(F)CC3)nc2c1` [Example 322, N—((S)-(7-((1S,2S)-1-(2-(3,3-Difluorocyclobutyl)acetamido)-2-methoxypropyl)imidazo[1,2-b]pyridazin-2-yl)(4,4-difluorocyclohexyl)methyl)-1-isopropyl-1H-pyrazole-5-carboxamide], for which the IC50 in assay [1] (Homo sapiens, Keratinocyte) amounted to 96 nM; in assay [2], 310 nM.
Turning to `CC(C)n1nccc1C(=O)N[C@H](c1cn2ncc(C(NC(=O)CC(C(F)(F)F)C(F)(F)F)C3CC3)cc2n1)C1CCC(F)(F)CC1` (single isomer, unassigned) [Example 10, N—((S)-(7-((R*)-Cyclopropyl(4,4,4-trifluoro-3(trifluoromethyl)butanamido)methyl)imidazo[1,2-b]pyridazin-2-yl)(4,4-difluorocyclohexyl)methyl)-1-isopropyl-1H-pyrazole-5-carboxamide], the values for the IC50 in assay [1] and in assay [2] were 44 nM and 210 nM, respectively.
Turning to `CCn1nncc1C(=O)N[C@H](c1cn2ncc([C@H](NC(=O)CCC(F)(F)F)C3CC3)cc2n1)C1CCC(F)(F)CC1` [Example 58, N—((S)-(7-((R)-Cyclopropyl(4,4,4-trifluorobutanamido)methyl)imidazo[1,2-b]pyridazin-2-yl)(4,4-difluorocyclohexyl)methyl)-1-ethyl-1H-1,2,3-triazole-5-carboxamide], the IC50 in assay [1] (Homo sapiens, Keratinocyte) amounted to 270 nM; in assay [2] it was 81 nM.
For the molecule `O=C(CCC(F)(F)F)N[C@@H](c1cnn2cc([C@@H](NC(=O)c3cnn(CC4CC(F)(F)C4(F)F)n3)C3CCC(F)(F)CC3)nc2c1)C1CC1` (stereo partly drawn) [Example 95, N—((S)-(7-((R)-Cyclopropyl(4,4,4-trifluorobutanamido)methyl)imidazo[1,2-b]pyridazin-2-yl)(4,4-difluorocyclohexyl)methyl)-2-((2,2,3,3-tetrafluorocyclobutyl)methyl)-2H-1,2,3-triazole-4-carboxamide], the IC50 in assay [1] (Homo sapiens, Keratinocyte) amounted to 260 nM; in assay [2] it was 100 nM.
In the case of `Cc1nonc1C(=O)N[C@H](c1cn2ncc([C@H](NC(=O)CCC(F)(F)F)C3CC3)cc2n1)C1CCC(F)(F)CC1` [Example 157, N—((S)-(7-((R)-Cyclopropyl(4,4,4-trifluorobutanamido)methyl)imidazo[1,2-b]pyridazin-2-yl)(4,4-difluorocyclohexyl)methyl)-4-methyl-1,2,5-oxadiazole-3-carboxamide], the IC50 is 150 nM in assay [1] (Homo sapiens, Keratinocyte) and 36 nM in assay [2].
Turning to `O=C(CCC(F)(F)F)N[C@@H](c1cnn2cc([C@@H](NC(=O)[C@H]3C[C@@H]3CF)C3CCC(F)(F)CC3)nc2c1)C1CC1` (relative stereo) [Example 363, (1S*,2S*)—N—((S)-(7-((R*)-Cyclopropyl(4,4,4-trifluorobutanamido)methyl)imidazo[1,2-b]pyridazin-2-yl)(4,4-difluorocyclohexyl)methyl)-2-(fluoromethyl)cyclopropane-1-carboxamide], the IC50 is 1100 nM in assay [1] (Homo sapiens, Keratinocyte) and 640 nM in assay [2].
The corresponding values for `O=C(CCC(F)(F)F)N[C@@H](c1cnn2cc([C@@H](NC(=O)c3cnnn3CCF)C3CCC(F)(F)CC3)nc2c1)C1CC1` [Example 105, N—((S)-(7-((R)-Cyclopropyl(4,4,4-trifluorobutanamido)methyl)imidazo[1,2-b]pyridazin-2-yl)(4,4-difluorocyclohexyl)methyl)-1-(2-fluoroethyl)-1H-1,2,3-triazole-5-carboxamide] are 550 nM and 110 nM.
For the molecule `O=C(CCC(F)(F)F)N[C@@H](c1cnn2cc([C@@H](NC(=O)C3CC3C(F)(F)F)C3CCC(F)(F)CC3)nc2c1)C1CC1` (mixture of isomers) [Example 43, (Trans-1,2)-N—((S)-(7-((R)-cyclopropyl(4,4,4-trifluorobutanamido)methyl)imidazo[1,2-b]pyridazin-2-yl)(4,4-difluorocyclohexyl)methyl)-2-(trifluoromethyl)cyclopropane-1-carboxamide], the IC50 in assay [1] (Homo sapiens, Keratinocyte) worked out at 720 nM; in assay [2] it was 240 nM.
Turning to `CC(C)(C)[C@@H](O)C(=O)NC(c1cnn2cc([C@@H](NC(=O)c3cnn(CC4CC4)n3)C3CCC(F)(F)CC3)nc2c1)C1CC1` (single isomer, unassigned) [Example 29, N—((S)-(7-((R*)-Cyclopropyl((R)-2-hydroxy-3,3-dimethylbutanamido)methyl)imidazo[1,2-b]pyridazin-2-yl)(4,4-difluorocyclohexyl)methyl)-2-(cyclopropylmethyl)-2H-1,2,3-triazole-4-carboxamide], the IC50 worked out at 370 nM in assay [1] (Homo sapiens, Keratinocyte) and 46 nM in assay [2].
`Cc1nonc1C(=O)N[C@H](c1cn2ncc(C(CC3CCC3)NC(=O)CC3CC(F)(F)C3)cc2n1)C1CCC(F)(F)CC1` (single isomer, unassigned) [Example 438, N—((S)-(7-((R*)-2-Cyclobutyl-1-(2-(3,3-difluorocyclobutyl)acetamido)ethyl)imidazo[1,2-b]pyridazin-2-yl)(4,4-difluorocyclohexyl)methyl)-4-methyl-1,2,5-oxadiazole-3-carboxamide]: the results for the IC50 in assay [1] and in assay [2] were 8000 nM and 470 nM, respectively.
As for `O=C(N[C@H](c1cn2ncc(CNC(=O)[C@@H]3NCCC[C@H]3C(F)(F)F)cc2n1)C1CCCCC1)c1ccccc1` (relative stereo) [Example 1, (Trans-2R*,3R*)—N-((2-((S)-benzamido(cyclohexyl)methyl)imidazo[1,2-b]pyridazin-7-yl)methyl)-3-(trifluoromethyl)piperidine-2-carboxamide hydrochloride], the IC50 in assay [1] (Homo sapiens, Keratinocyte) turned out to be 300 nM; in assay [2], 180 nM.
As to `Cc1nonc1C(=O)N[C@H](c1cn2ncc([C@H](NC(=O)CC34CC(F)(C3)C4)C3CC3)cc2n1)C1CCC(F)(F)CC1` [Example 272, N—((S)-(7-((R)-Cyclopropyl(2-(3-fluorobicyclo[1.1.1]pentan-1-yl)acetamido)methyl)imidazo[1,2-b]pyridazin-2-yl)(4,4-difluorocyclohexyl)methyl)-4-methyl-1,2,5-oxadiazole-3-carboxamide], the IC50 was determined as 290 nM in assay [1] (Homo sapiens, Keratinocyte) and 86 nM in assay [2].
For `O=C(CC12CC(F)(C1)C2)N[C@@H](c1cnn2cc([C@@H](NC(=O)c3nonc3C3CC3)C3CCC(F)(F)CC3)nc2c1)C1CC1` [Example 296, 4-Cyclopropyl-N—((S)-(7-((R)-cyclopropyl(2-(3-fluorobicyclo[1.1.1]pentan-1-yl)acetamido)methyl)imidazo[1,2-b]pyridazin-2-yl)(4,4-difluorocyclohexyl)methyl)-1,2,5-oxadiazole-3-carboxamide], the IC50 in assay [1] (Homo sapiens, Keratinocyte) turned out to be 50 nM; in assay [2], 22 nM.
For `O=C(CCC(F)(F)F)N[C@@H](c1cnn2cc([C@@H](NC(=O)c3cnn(CC4CCC4(F)F)n3)C3CCC(F)(F)CC3)nc2c1)C1CC1` (some centres unmarked) [Example 4] the same measures were 370 nM and 100 nM.
`O=C(CCC(F)(F)F)N[C@@H](c1cnn2cc([C@@H](NC(=O)c3ncnn3CCC(F)(F)F)C3CCC(F)(F)CC3)nc2c1)C1CC1` [Example 38, N—((S)-(7-((R)-Cyclopropyl(4,4,4-trifluorobutanamido)methyl)imidazo[1,2-b]pyridazin-2-yl)(4,4-difluorocyclohexyl)methyl)-1-(3,3,3-trifluoropropyl)-1H-1,2,4-triazole-5-carboxamide]: the half-maximal inhibitory concentration (IC50) came to 400 nM in assay [1] (Homo sapiens, Keratinocyte) and 78 nM in assay [2].
As to `CC(F)(F)CCn1ncnc1C(=O)N[C@H](c1cn2ncc([C@H](NC(=O)CCC(F)(F)F)C3CC3)cc2n1)C1CCC(F)(F)CC1` [Example 476, N—((S)-(7-((R)-Cyclopropyl(4,4,4-trifluorobutanamido)methyl)imidazo[1,2-b]pyridazin-2-yl)(4,4-difluorocyclohexyl)methyl)-1-(3,3-difluorobutyl)-1H-1,2,4-triazole-5-carboxamide], the IC50 was 390 nM in assay [1] (Homo sapiens, Keratinocyte) and 130 nM in assay [2].
As to `CC[C@H](NC(=O)CC1CC(F)(F)C1)c1cnn2cc([C@@H](NC(=O)c3nonc3C3CC3)C3CCC(F)(F)CC3)nc2c1` (relative stereo) [Example 521, 4-Cyclopropyl-N—((S*)-(7-((R)-1-(2-(3,3-difluorocyclobutyl)acetamido)propyl)imidazo[1,2-b]pyridazin-2-yl)(4,4-difluorocyclohexyl)methyl)-1,2,5-oxadiazole-3-carboxamide], the IC50 in assay [1] (Homo sapiens, Keratinocyte) amounted to 8000 nM; in assay [2], 390 nM.
On to `CC(C)(OC[C@H](NC(=O)c1nonc1C1CC1)c1cn2ncc([C@H](NC(=O)CC3CC(F)(F)C3)C3CC3)cc2n1)C(F)(F)F` [Example 321, 4-Cyclopropyl-N—((R)-1-(7-((R)-cyclopropyl(2-(3,3-difluorocyclobutyl)acetamido)methyl)imidazo[1,2-b]pyridazin-2-yl)-2-((1,1,1-trifluoro-2-methylpropan-2-yl)oxy)ethyl)-1,2,5-oxadiazole-3-carboxamide], for which the IC50 came to 32 nM in assay [1] (Homo sapiens, Keratinocyte) and 17 nM in assay [2].
